Assay results published in patent publication US6737383B1, “Herbicidal oxadiazolidines” (priority 1999, dated 2004).

Columns and labels:
bedstraw = test: Test B pre/postemergence bedstraw; type: in vivo, Galium aparine
Method in brief: (§1)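 Response is a visual 0-to-10 score relative to untreated plants, where 0 means no effect and 10 means complete control, taken twelve to sixteen days after application. Treatments went onto soil at planting and onto foliage of 1- to 4-leaf plants, using a surfactant-containing non-phytotoxic solvent.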

surinam grass = test: Test B pre/postemergence surinam grass; type: in vivo, Brachiaria decumbens
Method in brief: as §1

cocklebur = test: Test B pre/postemergence cocklebur; type: in vivo, Xanthium strumarium
Method in brief: as §1

corn = test: Test B pre/postemergence corn; type: in vivo, Zea mays
Method in brief: as §1

giant foxtail = test: Test B pre/postemergence giant foxtail; type: in vivo, Setaria faberii
Method in brief: as §1

pigweed = test: Test B pre/postemergence pigweed; type: in vivo, Amaranthus retroflexus
Method in brief: as §1

rape = test: Test B pre/postemergence rape; type: in vivo, Brassica napus
Method in brief: as §1

soybean = test: Test B pre/postemergence soybean; type: in vivo, Glycine max
Method in brief: as §1

sugar beet = test: Test B pre/postemergence sugar beet; type: in vivo, Beta vulgaris
Method in brief: as §1

velvetleaf = test: Test B pre/postemergence velvetleaf; type: in vivo, Abutilon theophrasti
Method in brief: as §1

wheat = test: Test B pre/postemergence wheat; type: in vivo, Triticum aestivum
Method in brief: as §1

wild oat = test: Test B pre/postemergence wild oat; type: in vivo, Avena fatua
Method in brief: as §1

purple nutsedge = test: Test B pre/postemergence purple nutsedge; type: in vivo, Cyperus rotundus
Method in brief: as §1

rice = test: Test B flood test rice; type: in vivo, Oryza sativa
Method in brief: (§2)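 Read-out is a visual response score from 0 (no effect) to 10 (complete control), assigned by comparison with untreated controls. Treatment was applied at the 2-leaf stage, and plants stayed in the greenhouse for twelve to sixteen days before scoring.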

smallflower flatsedge = test: Test B flood test smallflower flatsedge; type: in vivo, Cyperus difformis
Method in brief: as §2

duck salad = test: Test B flood test duck salad; type: in vivo, Heteranthera limosa
Method in brief: as §2

[1] = Postemergence, Rate 125 g/ha, scale 0 to 10, 0 is no effect, 10 is complete control
[2] = Preemergence, Rate 62 g/ha, scale of 0 to 10 where 0 is no effect and 10 is complete control
[3] = Preemergence, Rate 250 g/ha, scale of 0 to 10 where 0 is no effect and 10 is complete control
[4] = Preemergence, Rate 500 g/ha, scale of 0 to 10 where 0 is no effect and 10 is complete control
[5] = Rate 62 g/ha, Postemergence, scale 0 to 10 (0 no effect, 10 complete control)
[6] = Rate 250 g/ha, Postemergence, scale of 0 to 10 where 0 is no effect and 10 is complete control
[7] = Rate 500 g/ha, Postemergence, scale 0 to 10, 0 no effect, 10 complete control
[8] = Rate 62 g/ha, headed Pre-emergence (flood test species), scale 0 to 10 (0 no effect, 10 complete control)
[9] = Rate 125 g/ha, Pre-emergence, flood test species, scale 0 to 10 where 0 is no effect and 10 is complete control
[10] = Rate 250 g/ha, Pre-emergence, flood-test species, scale 0 to 10, 0 is no effect, 10 is complete control
[11] = Rate 500 g/ha, Pre-emergence, flood test species, scale 0 to 10 (0 no effect, 10 complete control)

## Cc1c(-n2c(=O)on(C(=O)N(c3ccc(F)cc3F)C(C)C)c2=O)ccc2ccccc12 [Compound 337]
bedstraw; [1]
  Plant response rating, Bedstraw: 1
bedstraw; [2]
  Bedstraw plant response rating: 0
bedstraw; Preemergence, Rate 125 g/ha
  Bedstraw plant response rating (0 to 10 scale): 0
bedstraw; [3]
  Bedstraw plant response rating: 0
bedstraw; [4]
  Bedstraw plant response rating: 0
bedstraw; [5]
  Bedstraw plant response rating: 0
bedstraw; [6]
  Plant response rating, Bedstraw: 2
bedstraw; [7]
  Plant response rating, Bedstraw: 4
Surinam grass; [1]
  Plant response rating, B. signalgrass: 0
Surinam grass; [2]
  B. signalgrass plant response rating: 0
Surinam grass; Preemergence, Rate 125 g/ha
  B. signalgrass plant response rating (0 to 10 scale, 0 is no effect, 10 is complete control): 0
Surinam grass; [3]
  B. signalgrass plant response rating: 0
Surinam grass; [4]
  B. signalgrass plant response rating: 0
Surinam grass; [5]
  B. signalgrass plant response rating: 0
Surinam grass; [6]
  Plant response rating, B. signalgrass: 0
Surinam grass; [7]
  Plant response rating, B. signalgrass: 0
cocklebur; [1]
  Plant response rating, Cocklebur: 0
cocklebur; [2]
  Cocklebur plant response rating: 0
cocklebur; Preemergence, Rate 125 g/ha
  Cocklebur plant response rating (0 to 10 scale): 0
cocklebur; [3]
  Cocklebur plant response rating: 0
cocklebur; [4]
  Cocklebur plant response rating: 0
cocklebur; [5]
  Cocklebur plant response rating: 0
corn; [1]
  Plant response rating, Corn: 0
corn; [2]
  Corn plant response rating: 0
corn; Preemergence, Rate 125 g/ha
  Corn plant response rating (0 to 10 scale): 0
corn; [3]
  Corn plant response rating: 0
corn; [4]
  Corn plant response rating: 0
corn; [5]
  Corn plant response rating: 0
corn; [7]
  Plant response rating, Corn: 0
Giant foxtail; [1]
  Plant response rating, Giant foxtail: 0
Giant foxtail; [2]
  Giant foxtail plant response rating: 0
Giant foxtail; Preemergence, Rate 125 g/ha
  Giant foxtail plant response rating (0 to 10 scale): 0
Giant foxtail; [3]
  Giant foxtail plant response rating: 2
Giant foxtail; [4]
  Giant foxtail plant response rating: 9
Giant foxtail; [5]
  Giant foxtail plant response rating: 0
Giant foxtail; [7]
  Plant response rating, Giant foxtail: 0
pigweed; [1]
  Plant response rating, Redroot pigweed: 0
pigweed; [2]
  Redroot pigweed plant response rating: 0
pigweed; Preemergence, Rate 125 g/ha
  Redroot pigweed plant response rating (0 to 10 scale): 0
pigweed; [3]
  Redroot pigweed plant response rating: 0
pigweed; [4]
  Redroot pigweed plant response rating: 0
pigweed; [5]
  Redroot pigweed plant response rating: 0
pigweed; [7]
  Plant response rating, Redroot pigweed: 0
rape; [1]
  Plant response rating, Rape: 0
rape; [2]
  Rape plant response rating: 0
rape; Preemergence, Rate 125 g/ha
  Rape plant response rating (0 to 10 scale): 0
rape; [3]
  Rape plant response rating: 0
rape; [4]
  Rape plant response rating: 0
rape; [5]
  Rape plant response rating: 0
rape; [7]
  Plant response rating, Rape: 0
soybean; [1]
  Plant response rating, Soybean: 1
soybean; [2]
  Soybean plant response rating: 0
soybean; Preemergence, Rate 125 g/ha
  Soybean plant response rating (0 to 10 scale): 0
soybean; [3]
  Soybean plant response rating: 0
soybean; [4]
  Soybean plant response rating: 0
soybean; [5]
  Soybean plant response rating: 1
soybean; [7]
  Plant response rating, Soybean: 2
Sugar beet; [1]
  Plant response rating, Sugarbeets: 0
Sugar beet; [2]
  Sugarbeets plant response rating: 0
Sugar beet; Preemergence, Rate 125 g/ha
  Sugarbeets plant response rating (0 to 10 scale): 0
Sugar beet; [3]
  Sugarbeets plant response rating: 0
Sugar beet; [4]
  Sugarbeets plant response rating: 0
Sugar beet; [5]
  Sugarbeets plant response rating: 0
Sugar beet; [7]
  Plant response rating, Sugarbeets: 0
velvetleaf; [1]
  Plant response rating, Velvetleaf: 0
velvetleaf; [2]
  Velvetleaf plant response rating: 0
velvetleaf; Preemergence, Rate 125 g/ha
  Velvetleaf plant response rating (0 to 10 scale): 0
velvetleaf; [3]
  Velvetleaf plant response rating: 0
velvetleaf; [4]
  Velvetleaf plant response rating: 0
velvetleaf; [5]
  Velvetleaf plant response rating: 0
velvetleaf; [7]
  Plant response rating, Velvetleaf: 0
wheat; [1]
  Plant response rating, Wheat: 0
wheat; [2]
  Wheat plant response rating: 0
wheat; Preemergence, Rate 125 g/ha
  Wheat plant response rating (0 to 10 scale): 0
wheat; [3]
  Wheat plant response rating: 0
wheat; [4]
  Wheat plant response rating: 0
wheat; [5]
  Wheat plant response rating: 0
wheat; [7]
  Plant response rating, Wheat: 0
Wild oat; [1]
  Plant response rating, Wild oats: 0
Wild oat; [2]
  Wild oats plant response rating: 0
Wild oat; Preemergence, Rate 125 g/ha
  Wild oats plant response rating (0 to 10 scale): 0
Wild oat; [3]
  Wild oats plant response rating: 0
Wild oat; [4]
  Wild oats plant response rating: 0
Wild oat; [5]
  Wild oats plant response rating: 0
Wild oat; [7]
  Plant response rating, Wild oats: 0
Purple nutsedge; [1]
  Plant response rating, Nutsedge: 0
Purple nutsedge; [2]
  Nutsedge plant response rating: 0
Purple nutsedge; Preemergence, Rate 125 g/ha
  Nutsedge plant response rating (0 to 10 scale): 0
Purple nutsedge; [3]
  Nutsedge plant response rating: 0
Purple nutsedge; [4]
  Nutsedge plant response rating: 0
Purple nutsedge; [5]
  Nutsedge plant response rating: 0
Purple nutsedge; [7]
  Plant response rating, Nutsedge: 0
rice; [8]
  Rice plant response rating: 0
rice; [9]
  Rice plant response rating: 0
rice; [10]
  Rice plant response rating: 0
rice; [11]
  Rice plant response rating: 0
Smallflower flatsedge; [8]
  S. Flatsedge plant response rating: 0
Smallflower flatsedge; [9]
  S. Flatsedge plant response rating: 0
Smallflower flatsedge; [10]
  S. Flatsedge plant response rating: 0
Smallflower flatsedge; [11]
  S. Flatsedge plant response rating: 0
Duck salad; [8]
  Ducksalad plant response rating: 0
Duck salad; [9]
  Ducksalad plant response rating: 0
Duck salad; [10]
  Ducksalad plant response rating: 0
Duck salad; [11]
  Ducksalad plant response rating: 0
